Source: patent US6908940B2, “Imidazole compounds and their use as adenosine deaminase inhibitors” (Fujisawa Pharmaceutical Co., Ltd., priority 2000, dated 2005)

Biological target: T1, Human ADA (Homo sapiens, UniProt P00813)
T1 construct: made in house
T1 sequence (P00813 1-363): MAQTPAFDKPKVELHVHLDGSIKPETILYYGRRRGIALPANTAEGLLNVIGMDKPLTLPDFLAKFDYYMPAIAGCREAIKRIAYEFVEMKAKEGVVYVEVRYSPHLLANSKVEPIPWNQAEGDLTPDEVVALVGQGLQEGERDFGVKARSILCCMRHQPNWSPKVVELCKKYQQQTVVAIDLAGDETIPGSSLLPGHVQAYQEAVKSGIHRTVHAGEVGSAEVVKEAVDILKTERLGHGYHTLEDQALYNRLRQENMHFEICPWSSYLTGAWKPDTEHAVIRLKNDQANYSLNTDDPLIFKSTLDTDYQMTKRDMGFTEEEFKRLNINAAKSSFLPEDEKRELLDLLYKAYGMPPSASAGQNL
Assay: Adenosine Deaminase (ADA) Enzyme Assay
Type: biochemical
Conditions: 50% inhibition of Vmax vs vehicle; 0.16 μg/ml ADA, 0.1 mM adenosine, phosphate buffer saline pH 7.4, room temperature, decrease in A265 for 3 minutes
Experimental: Adenosine Deaminase (ADA) Enzyme Assay
• 1-{(2S,3R)-2-hydroxy-5-[2-(3-(4-chlorophenyl)propoxy)-phenyl]-3-pentyl}imidazole-4-carboxamide (Example 8) • 1-[(2S,3R)-2-hydroxy-5-(7-chloro-1-naphthyl)-3-pentyl]-imidazole-4-carboxamide (Example 12) Test Method:
The reaction velocity (V) is measured by a change in absorbance at 265 nm (A265) resulting from the deamination of adenosine. Human ADA was expressed and purified from ADA-deficient bacterial strain. Reaction mixtures of a total volume of 200 μl contained 0.16 μg/ml of ADA and 0.1 mM of adenosine and test compound in 10 mM phosphate buffer saline (pH 7.4). The reaction was started by addition of ADA to a mixture of adenosine and test compound. The reaction was followed at room temperature by recording decrease in A265 for 3 minutes in SPECTRAmax 250 (Molecular Devices, USA) to automatically calculate Vmax. Inhibitory potency of test compound was expressed as IC50 value, the drug concentration required to produce 50% inhibition of Vmax in comparison to vehicle treatment.

IC50 [nM]	SMILES
< 20	C[C@H](O)[C@@H](CCc1ccccc1OCCCc1ccc(Cl)cc1)n1cnc(C(N)=O)c1 [Example 8, 1-{(2S,3R)-2-hydroxy-5-[2-(3-(4-chlorophenyl)propoxy)phenyl]-3-pentyl}imidazole-4-carboxamide]
< 20	C[C@H](O)[C@@H](CCc1cccc2ccc(Cl)cc12)n1cnc(C(N)=O)c1 [Example 12, 1-[(2S,3R)-2-hydroxy-5-(7-chloro-1-naphthyl)-3-pentyl]imidazole-4-carboxamide]
